Data from patent US11339171B2, “MDM2 inhibitors” (Gan & Lee Pharmaceuticals, priority 2017, dated 2022).

Key:
[1] = test system: human osteosarcoma cell line SJSA-1; test: Inhibition of proliferation of human osteosarcoma cell line SJSA-1 (DAPI staining, In Cell Analyzer); conditions: for inhibitory effect on human osteosarcoma cell line SJSA-1 compared with positive control compound HDM201: labels are Example numbers, the compounds with S-configuration are meant; for IC50: Homo sapiens, SJSA-1, 72 h, read-out: IC50 (nM), inhibitory activity on proliferation of human osteosarcoma cell line SJSA-1, SJSA-1, incubated 72 h
[2] = target: T1, MDM2 (Homo sapiens, UniProt Q00987); test: Inhibition test of MDM2-P53 (GST-MDM2, Biotin-P53, Anti-GST-Tb, SA-XL665); type: binding; conditions: for inhibitory effect on MDM2 compared with positive control compound HDM201: labels are Example numbers, the compounds with S-configuration are meant
T1 construct: made in house
Outline: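 HTRF-type assay using 4 nM GST-MDM2 (final), Biotin-P53, SA-XL665 and anti-GST-Tb in PBS with 0.1% BSA, 5 mM DTT and 1 mM AEBSF. Compounds in 5-fold serial dilutions over twelve points; incubation 90 min at 25° C with shaking before plate-reader read-out.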

T1 sequence (Q00987 whole entry): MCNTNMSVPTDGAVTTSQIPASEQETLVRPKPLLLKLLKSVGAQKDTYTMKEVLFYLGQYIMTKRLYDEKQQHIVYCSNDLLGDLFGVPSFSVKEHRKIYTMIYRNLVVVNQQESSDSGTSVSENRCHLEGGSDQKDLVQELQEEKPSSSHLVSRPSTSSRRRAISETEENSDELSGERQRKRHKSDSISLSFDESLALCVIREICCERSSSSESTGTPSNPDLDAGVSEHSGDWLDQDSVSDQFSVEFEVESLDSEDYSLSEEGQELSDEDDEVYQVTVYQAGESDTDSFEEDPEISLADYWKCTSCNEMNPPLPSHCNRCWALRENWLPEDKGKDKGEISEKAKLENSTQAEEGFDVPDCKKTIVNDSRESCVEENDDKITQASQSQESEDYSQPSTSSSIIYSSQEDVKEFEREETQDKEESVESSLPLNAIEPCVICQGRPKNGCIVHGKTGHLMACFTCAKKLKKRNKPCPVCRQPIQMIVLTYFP

Row | SMILES | inhibitory effect on human osteosarcoma cell line SJSA-1 compared with positive control compound HDM201 [1] | inhibitory effect on MDM2 compared with positive control compound HDM201 [2] | IC50 [1] | IC50 [2]
1 | CCOc1cc(OC)c(-c2nc3c(n2C(C)C)C2(C(=O)Nc4cc(Cl)ccc42)N(c2cccc(Cl)c2)C3=O)cn1 (stereo not drawn) [Example 102, 6-chloro-5′-(3-chlorophenyl)-2′-(6-ethoxy-4-methoxypyridin-3-yl)-3′-isopropyl-3′H-spiro[dihydroindole-3,4′-pyrrolo[3,4-d]imidazole]-2,6′(5′H)-dione] | better | better |  | 
2 | COc1cc(OCC(F)F)ncc1-c1nc2c(n1C(C)C)C1(C(=O)Nc3cc(Cl)ccc31)N(c1cc(Cl)ccc1C)C2=O (stereo not drawn) [Example 153, 6-chloro-5′-(5-chloro-2-methylphenyl)-2′-(6-(2,2-difluoroethoxy)-4-methoxypyridin-3-yl)-3′-isopropyl-3′H-spiro[dihydroindole-3,4′-pyrrolo[3,4-d]imidazole]-2,6′(5′H)-dione] | better | better |  | 
3 | COc1ncc(-c2nc3c(n2C(C)C)[C@]2(C(=O)Nc4cc(Cl)ccc42)N(c2ccc(F)c(Cl)c2)C3=O)c(OC)n1 [Example R-3, (R)-6-chloro-5′-(3-chloro-4-fluorophenyl)-2′-(2,4-dimethoxypyrimidin-5-yl)-3′-isopropyl-3′H-spiro[dihydroindole-3,4′-pyrrolo[3,4-d]imidazole]-2,6′(5′H)-dione] |  |  | 16300 nM | 1190 nM
4 | COc1cc(C2CC2)ncc1-c1nc2c(n1C(C)C)C1(C(=O)Nc3cc(Cl)ccc31)N(c1cc(Cl)ccc1C)C2=O (stereo not drawn) [Example 103, 6-chloro-5′-(5-chloro-2-methylphenyl)-2′-(6-cyclopropyl-4-methoxypyridin-3-yl)-3′-isopropyl-3′H-spiro[dihydroindole-3,4′-pyrrolo[3,4-d]imidazole]-2,6′(5′H)-dione] | better | better |  | 
5 | COc1cc(N(C)C)ncc1-c1nc2c(n1C(C)C)[C@]1(C(=O)Nc3cc(Cl)ccc31)N(c1cccc(Cl)c1)C2=O [Example R-113, (R)-6-chloro-5′-(3-chlorophenyl)-2′-(6-(dimethylamino)-4-methoxypyridin-3-yl)-3′-isopropyl-3′H-spiro[dihydroindole-3,4′-pyrrolo[3,4-d]imidazole]-2,6′(5′H)-dione] |  |  | 2170 nM | 50.5 nM
6 | COc1ncc(-c2nc3c(n2C(C)C)[C@]2(C(=O)Nc4cc(Cl)ccc42)N(c2cc(Cl)cn(C)c2=O)C3=O)c(OC)n1 [Example R-16, (R)-6-chloro-5′-(5-chloro-1-methyl-2-oxo-1,2-dihydropyridin-3-yl)-2′-(2,4-dimethoxypyrimidin-5-yl)-3′-isopropyl-3′H-spiro[dihydroindole-3,4′-pyrrolo[3,4-d]imidazole]-2,6′(5′H)-dione] |  |  | 20100 nM | 570 nM
7 | COc1cc(OC)c(-c2nc3c(n2C(C)C)C2(C(=O)Nc4cc(Cl)ccc42)N(c2cc(Cl)ccc2C)C3=O)cc1F (stereo not drawn) [Example 92, 6-chloro-5′-(5-chloro-2-methylphenyl)-2′-(5-fluoro-2,4-dimethoxyphenyl)-3′-isopropyl-3′H-spiro[dihydroindole-3,4′-pyrrolo[3,4-d]imidazole]-2,6′(5′H)-dione] | better | better |  | 
8 | COc1cc(N(C)C)c(F)cc1-c1nc2c(n1C(C)C)C1(C(=O)Nc3cc(Cl)ccc31)N(c1cc(Cl)ccc1C)C2=O (stereo not drawn) [Example 78] | better | better |  | 
9 | CCOc1ccc(-c2nc3c(n2C(C)C)[C@@]2(C(=O)Nc4cc(Cl)ccc42)N(c2cc(Cl)ccc2C)C3=O)c(OC)c1 [Example S-88, (S)-6-chloro-5′-(5-chloro-2-methylphenyl)-2′-(4-ethoxy-2-methoxyphenyl)-3′-isopropyl-3′H-spiro[dihydroindole-3,4′-pyrrolo[3,4-d]imidazole]-2,6′(5′H)-dione] |  |  | 77.3 nM | 2.34 nM
10 | COc1cc(C2CC2)ncc1-c1nc2c(n1C(C)C)C1(C(=O)Nc3cc(Cl)ccc31)N(c1cc(F)cc(Cl)c1)C2=O (stereo not drawn) [Example 176, 6-chloro-5′-(3-chloro-5-fluorophenyl)-2′-(6-cyclopropyl-4-methoxypyridin-3-yl)-3′-isopropyl-3′H-spiro[dihydroindole-3,4′-pyrrolo[3,4-d]imidazole]-2,6′(5′H)-dione] | better | better |  | 
11 | COc1nc(OCC(F)F)ncc1-c1nc2c(n1C(C)C)[C@]1(C(=O)Nc3cc(Cl)ccc31)N(c1cc(Cl)ccc1C)C2=O [Example R-147, (R)-6-chloro-5′-(5-chloro-2-methylphenyl)-2′-(2-(2,2-difluoroethoxy)-4-methoxypyrimidin-5-yl)-3′-isopropyl-3′H-spiro[dihydroindole-3,4′-pyrrolo[3,4-d]imidazole]-2,6′(5′H)-dione] |  |  | 5740 nM | 119 nM
12 | COc1cc(OC(F)F)ncc1-c1nc2c(n1C(C)C)[C@]1(C(=O)Nc3cc(Cl)ccc31)N(c1cc(Cl)ccc1C)C2=O [Example R-150, (R)-6-chloro-5′-(5-chloro-2-methylphenyl)-2′-(6-(difluoromethoxy)-4-methoxypyridin-3-yl)-3′-isopropyl-3′H-spiro[dihydroindole-3,4′-pyrrolo[3,4-d]imidazole]-2,6′(5′H)-dione] |  |  | 5700 nM | 377 nM
13 | COc1cc(OC)c(-c2nc3c(n2C(C)C)C2(C(=O)Nc4cc(Cl)ccc42)N(c2cc(Cl)cnc2C)C3=O)cn1 (stereo not drawn) [Example 131, 6-chloro-5′-(5-chloro-2-methylpyridin-3-yl)-2′-(4,6-dimethoxypyridin-3-yl)-3′-isopropyl-3′H-spiro[dihydroindole-3,4′-pyrrolo[3,4-d]imidazole]-2,6′(5′H)-dione] | better | better |  | 
14 | COc1cc(OC)c(-c2nc3c(n2C(C)C)[C@@]2(C(=O)Nc4cc(Cl)ccc42)N(c2cc(F)cc(Cl)c2)C3=O)cn1 [Example S-175, (S)-6-chloro-5′-(3-chloro-5-fluorophenyl)-2′-(4,6-dimethoxypyridin-3-yl)-3′-isopropyl-3′H-spiro[dihydroindole-3,4′-pyrrolo[3,4-d]imidazole]-2,6′(5′H)-dione] |  |  | 49.2 nM | 1.96 nM
15 | COc1nc(C2CC2)ncc1-c1nc2c(n1C(C)C)[C@]1(C(=O)Nc3cc(Cl)ccc31)N(c1cc(Cl)cnc1C)C2=O [Example R-159, (R)-6-chloro-5′-(5-chloro-2-methylpyridin-3-yl)-2′-(2-cyclopropyl-4-methoxypyrimidin-5-yl)-3′-isopropyl-3′H-spiro[dihydroindole-3,4′-pyrrolo[3,4-d]imidazole]-2,6′(5′H)-dione] |  |  | 5330 nM | 468 nM
16 | CCc1ccc(Cl)cc1N1C(=O)c2nc(-c3cnc(OC)nc3OC)n(C(C)C)c2[C@@]12C(=O)Nc1cc(Cl)ccc12 [Example S-15, (S)-6-chloro-5′-(5-chloro-2-ethylphenyl)-2′-(2,4-dimethoxypyrimidin-5-yl)-3′-isopropyl-3′H-spiro[dihydroindole-3,4′-pyrrolo[3,4-d]imidazole]-2,6′(5′H)-dione] |  |  | 10.9 nM | 1.62 nM
17 | COc1cc(N(C)C)c(C)cc1-c1nc2c(n1C(C)C)[C@]1(C(=O)Nc3cc(Cl)ccc31)N(c1cc(Cl)ccc1C)C2=O [Example R-91, (R)-6-chloro-5′-(5-chloro-2-methylphenyl)-2′-(4-(dimethylamino)-2-methoxy-5-methylphenyl)-3′-isopropyl-3′H-spiro[dihydroindole-3,4′-pyrrolo[3,4-d]imidazole]-2,6′(5′H)-dione] |  |  | 993 nM | 461 nM
18 | COc1ncc(-c2nc3c(n2C(C)C)C2(C(=O)Nc4cc(Cl)ccc42)N(c2cc(Cl)ccc2C)C3=O)c(OC)n1 (stereo not drawn) [Example 2, 6-chloro-5′-(5-chloro-2-methylphenyl)-2′-(2,4-dimethoxypyrimidin-5-yl)-3′-isopropyl-3′H-spiro[dihydroindole-3,4′-pyrrolo[3,4-d]imidazole]-2,6′(5′H)-dione] | better | better |  | 
19 | COc1cc(N(C)C)ncc1-c1nc2c(n1C(C)C)[C@@]1(C(=O)Nc3cc(Cl)ccc31)N(c1cc(Cl)cnc1C)C2=O [Example S-155, (S)-6-chloro-5′-(5-chloro-2-methylpyridin-3-yl)-2′-(6-(dimethylamino)-4-methoxypyridin-3-yl)-3′-isopropyl-3′H-spiro[dihydroindole-3,4′-pyrrolo[3,4-d]imidazole]-2,6′(5′H)-dione] |  |  | 14.6 nM | 0.95 nM
20 | CCOc1cc(OC)c(-c2nc3c(n2C(C)C)C2(C(=O)Nc4cc(Cl)ccc42)N(c2cc(F)cc(Cl)c2)C3=O)cn1 (stereo not drawn) [Example 139, 6-chloro-5′-(3-chloro-5-fluorophenyl)-2′-(6-ethoxy-4-methoxypyridin-3-yl)-3′-isopropyl-3′H-spiro[dihydroindole-3,4′-pyrrolo[3,4-d]imidazole]-2,6′(5′H)-dione] | better | better |  | 
21 | COc1cc(C2CC2)ncc1-c1nc2c(n1C(C)C)[C@]1(C(=O)Nc3cc(Cl)ccc31)N(c1cc(Cl)ccc1C)C2=O [Example R-103, (R)-6-chloro-5′-(5-chloro-2-methylphenyl)-2′-(6-cyclopropyl-4-methoxypyridin-3-yl)-3′-isopropyl-3′H-spiro[dihydroindole-3,4′-pyrrolo[3,4-d]imidazole]-2,6′(5′H)-dione] |  |  | 2430 nM | 181 nM
